Source: patent publication US6894079B1, “Method for reducing free-radical induced injury” (priority 1998, dated 2005)

How the values were obtained:
[1] = AAPH peroxyl-radical oxidation of linoleic acid/SDS micelles, malondialdehyde formation; conditions: 2, 4, 20 and 50 mM AAPH; 5 ml emulsion plus 5 ml perflubron, room temperature (FIGS. 4A-D)
Procedure: This embodiment illustrates the effect of perfluorocarbon on fatty acid oxidation in a non-biological system (fatty acid micelles). Linoleic acid micelles were prepared as follows: Linoleic acid (3 mM) was emulsified into phosphate buffered saline (PBS) using the detergent sodium dodecyl sulfate (SDS, 250 μM). Linoleic acid/SDS micelles in PBS were formed by agitation and sonication of the resulting emulsion. The emulsion (5 ml) was exposed to perfluorocarbon by the addition of perflubron (PFOB, 5 ml, available commercially) to the system. Emulsions not exposed to perflubron served as controls. The emulsion/PFOB system (PFOB exposed micelles) and the non-exposed micelles (control) were agitated (xyz axial shaker) at room temperature. […] The degree of oxidative injury to the linoleic acid/SDS micelles was assessed by measuring malondialdehyde concentrations in aliquots taken from the emulsion phase at different time intervals. […] Malondialdehyde was measured using the method of Esterbauer and Cheeseman (Meth. Enzymol. 1990; 186:407-421). […] Absorbance changes were measured using a spectrophotometer (Beckman DU 650, Beckman Instruments) at 586 nm, against standard curves of 1,1,3,3-tetramethoxypropane at the end of the incubation period. […]

[2] = system: Rat pulmonary artery endothelial cells (RPAECs); assay: H2O2 oxidative stress to endothelial cell monolayers, DCFDA fluorescence (confocal imaging); type: cell-based
Procedure: Rat pulmonary artery endothelial cells (RPAECs) were grown to confluence on optical grade culture dishes using standard technique. Cells were grown in Dulbecco's Modified Eagles Medium (high glucose) containing […], 0.8 M NaOH 10% serum (calf serum). Cells were incubated at 37° C. in 5% CO2, 95% relative humidity.
An oxidative stress indicator, dichlorofluorescein diacetate (DCFDA), was used to indicate the extent of injury to cells. DCFDA is a colorless substance that permeates through the cell membrane. Fresh DCFDA (5 uM) was prepared by solubilizing 2.4 mg DCFDA in 300 ul DMSO, then diluting the solution in […] Phosphate buffered saline (PBS), pH 7.4. […] Upon excitation by contact with free radicals, the dye DCFDA becomes fluorescent and the intensity of fluorescence is directly proportional to the degree of oxidative stress suffered by the cells. […]
Oxidative stress was initiated by the addition of the buffer containing 10 mM H2O2 in PBS to the cell monolayers. Oxidative stress to cells was measured by sequential imaging with a confocal laser microscope obtained at baseline and every 10 seconds for 120 seconds. The excitation filter was wet at 488 nm and the images were read at 515 nm. […]
Relative fluorescence of cell monolayers exposed to perflubron (open circles) and standard buffer (closed circles) are shown in FIG. 1. […] Data are expressed as mean+standard error of the mean. […]

FC(F)(F)C(F)(F)C(F)(F)C(F)(F)C(F)(F)C(F)(F)C(F)(F)C(F)(F)Br [PFOB, perfluorooctyl bromide]
oxidative damage to fatty acid micelles (malondialdehyde concentration) [1]: attenuates oxidative damage to fatty acid micelles | oxidative injury to cell monolayers ([2]; 10 mM H2O2 in PBS, imaging every 10 seconds for 120 seconds, perflubron removed by aspiration or evaporation (FIGS. 1, 2 and 3)): attenuates oxidative injury to cell monolayers | DCFDA fluorescence (indicator of free radicals) in cell cultures ([2]; after 120 seconds of oxidative stress with 10 mM H2O2, cells pre-exposed 1 minute to 1 ml PFOB, then removed (C120, FIG. 2 and 3)): lack of fluorescence
